In patent US20240173279A1, “Method of Treatment for Autophagy Diseases by Administration of Dexibuprofen and Use of Dexibuprofen for Preparation of a Medicament for Same” (JEM THERAPEUTICS PBC, priority 2021, published 2024):
Like-named read-outs stand apart in the source and are kept apart here.

Tests used:
[1] = tested on: Hereditary Spastic Paraparesis, homozygous TECPR2 mutations; test: Treatment of a patient with Hereditary Spastic Paraparesis (Example 2); type: in vivo; conditions: human patient, daily oral doses, after 30 days of treatment
Procedure: A human patient is tested and found to be homozygous for TECPR2 mutations and suffering from neurodegenerative issues related to Hereditary Spastic Paraparesis. The patient is given daily oral doses of dexibuprofen to reduce the effects of the disease.

[2] = in vivo; cited from earlier work
[3] = cited from earlier work; for safety / side effect profile compared to ibuprofen: published studies, incl. pediatric population

Row | SMILES | neurodegenerative issues relating to TECPR2 mutations [1] | crossing of the blood brain barrier (BBB) [2] | safety profile compared to acetaminophen ([3]; in vivo) | safety / side effect profile compared to ibuprofen [3] | safety / side effect profile compared to ibuprofen ([3]; listed as dexibuprofen)
1 | CC(C)Cc1ccc([C@H](C)C(=O)O)cc1 [Dexibuprofen, (S)-a-methyl-4-(2-methylpropyl)benzeneacetic acid] | reduced neurodegenerative issues | crosses the blood brain barrier | superior safety profile to acetaminophen | extremely similar to ibuprofen | did not note safety differences
2 | CC(C)Cc1ccc(C(C)C(=O)O)cc1 (stereo not drawn) [ibuprofen] |  | crosses the blood brain barrier |  |  | 
